Measured values taken from patent publication US8048884B2, “Substituted piperazinyl pyrazines and pyridines as 5-HT7 receptor antagonists” (Eli Lilly and Company, priority 2007, dated 2011).
Where “and” joins values, the source holds several entries; their conditions need not be identical. Equal entries are not always repeated. Structures can show the parent of a compound that is named as a salt.

Assays:
5-HT7 receptor [1] = target: T1, 5-HT7 receptor (Homo sapiens, UniProt P34969); test: Functional antagonist assay: measurement of cAMP formation; type: cell-based; settings: 5-HT7-expressing AV-12 cells; for Kb: antagonist potency
T1 construct: expressed in transfected cells
T1 sequence (P34969 whole entry): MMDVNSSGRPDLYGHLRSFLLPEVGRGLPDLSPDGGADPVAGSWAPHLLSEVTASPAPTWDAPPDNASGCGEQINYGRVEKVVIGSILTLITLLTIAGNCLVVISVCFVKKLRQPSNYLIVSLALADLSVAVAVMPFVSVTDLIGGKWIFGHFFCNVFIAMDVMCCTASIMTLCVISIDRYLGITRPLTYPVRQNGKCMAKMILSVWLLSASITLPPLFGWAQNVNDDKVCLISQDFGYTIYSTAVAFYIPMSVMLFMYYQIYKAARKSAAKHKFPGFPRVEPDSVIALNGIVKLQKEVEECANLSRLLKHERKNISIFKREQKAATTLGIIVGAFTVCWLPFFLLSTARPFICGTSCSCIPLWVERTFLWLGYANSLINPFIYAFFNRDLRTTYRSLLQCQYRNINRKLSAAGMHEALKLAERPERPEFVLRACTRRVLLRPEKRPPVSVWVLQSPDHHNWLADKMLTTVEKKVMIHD
Method: For cAMP functional assays, the 5-HT7-expressing cells from above are grown in 150 cm^2 flasks and processed essentially as follows. The media is aspirated from the flasks and cells are washed with 1 mL PBS. The cells are released from monolayer with enzyme free cell dissociation solution (Specialtymedia CAT#S-004-B, www.Chemicon.com) and resuspended in complete media. A sample of the cells is counted and the remainder is centrifuged as above for 3 min. The resulting cell pellet is resuspended in PBS at a concentration of 1×10^6 cells per mL and used directly in the cAMP assay as described.
The 5-HT7 receptor is functionally coupled to a G-protein as measured by the ability of serotonin and serotonergic drugs to stimulate cAMP production in CHO cells transfected with the 5-HT7 receptor. (Ruat, et al., Proceedings of the National Academy of Sciences (USA), 90:8547-8551, 1993.) Accordingly, functional receptor activity can be measured by measuring adenylate cyclase activity using a commercially available cell-based, homogeneous, time resolved fluorescence assay kit, as for example the kit produced by Cisbio-US, Inc. (Bedford, Mass.). Essentially, and using the protocol and reagents provided by the manufacturer, approximately 20,000 human 5-HT7 receptor-expressing AV-12 cells (as described above) are used with test compound dose concentrations in the range described for the binding assay. […] A cAMP standard curve is also run in every experiment. After the assay plates are read in an Envision™ instrument (Perkin-Elmer, Wellesley Mass.), the data are normalized to the standard curve and converted to percent inhibition for data analysis as described above for the receptor binding assay results. The Kb (nM) is calculated as a measure of the antagonist potency of the compound. Preferred compounds are those having percent inhibition>75%. Still other preferred compounds are those having Kb<50 nM.

5-HT7 receptor [2] = target: T1, 5-HT7 receptor; test: 5-HT7 receptor affinity: [3H]5-HT radioligand binding assay; settings: [3H]5-HT competition, membranes of AV-12 cells
Method: Membranes for affinity and antagonist activity assays are prepared essentially as follows. AV-12 cells, stably expressing the 5-HT7 receptor, are grown as a monolayer in 5×T-150 flasks in DMEM/F12 (3:1) 5% FBS, 20 mM HEPES, […] geneticin, 50 mg/mL tobramycin. After growing to 90% confluence the media is removed and replaced with Hybritech media (a low calcium version of DMEM/F12 media having 11 mg/L calcium) containing 2% horse serum, […] dextran sulfate, 1 mg/mL nucellin, 1 mg/mL human transferrin (partially iron saturated), 50 mg/mL tobramycin, 20 mM HEPES, […] geneticin, 0.04% pluronic F68. The cells are grown overnight to condition the media. The next morning the conditioned media (−150 mL total) is removed and set aside in a sterile container. The cells are trypsinized and collected in the conditioned media. […]
To prepare membranes, the above pellets are resuspended in ice-cold Tris buffer (20 mM Tris HCl, pH 7.4 at 23° C., 5 mM EDTA) and homogenized with a Wheaton tissue grinder. […] Protein concentrations are determined by the method of Bradford. […]
(§1) [^3H] […] The reactions are incubated at room temperature for 3 hr. and then counted in a Trilux Microbeta™ scintillation counter to detect receptor-bound radioligand. Binding data is analyzed by computer-assisted 4 parameter fit analysis (ID Business Solutions Ltd, Guildford, Surrey, UK). […]

5-HT2B = target: T2, 5-HT2B (Homo sapiens, UniProt P41595); test: Radioligand binding assay, 5-HT2B subtype
T2 construct: expressed in transfected cells
T2 sequence (P41595 whole entry, species assumed): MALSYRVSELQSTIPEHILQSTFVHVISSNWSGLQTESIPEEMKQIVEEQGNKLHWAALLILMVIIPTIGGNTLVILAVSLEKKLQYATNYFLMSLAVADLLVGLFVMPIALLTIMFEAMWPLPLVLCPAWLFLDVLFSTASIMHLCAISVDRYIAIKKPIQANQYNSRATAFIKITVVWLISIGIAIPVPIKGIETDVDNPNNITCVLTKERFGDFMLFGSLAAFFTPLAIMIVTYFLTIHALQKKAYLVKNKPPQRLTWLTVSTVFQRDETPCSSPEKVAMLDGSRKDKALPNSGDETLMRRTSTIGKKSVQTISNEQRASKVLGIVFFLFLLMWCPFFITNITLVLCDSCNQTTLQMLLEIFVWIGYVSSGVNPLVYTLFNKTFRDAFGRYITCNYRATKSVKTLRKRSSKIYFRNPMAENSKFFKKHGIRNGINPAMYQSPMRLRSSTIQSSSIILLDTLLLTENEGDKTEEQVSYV
Method: as §1
(§2) Affinity for other serotonin receptor subtypes as well as for alpha 1 & 2 adrenergic receptors can readily be determined by modification of the above described radioligand receptor binding assay using membranes derived from cells stably expressing the desired receptor subtype including the 5-HT1A, 5-HT1B, and 5-HT1D subtypes, as well as the 5-HT2A, 5-HT2B, 5-HT2C, 5-HT4, 5-HT5, and 5-HT6 receptor subtypes. […]

5-HT4 = target: T3, 5-HT4 (Homo sapiens, UniProt Q13639); test: Radioligand binding assay, 5-HT4 subtype
T3 construct: expressed in transfected cells
T3 sequence (Q13639 whole entry, species assumed): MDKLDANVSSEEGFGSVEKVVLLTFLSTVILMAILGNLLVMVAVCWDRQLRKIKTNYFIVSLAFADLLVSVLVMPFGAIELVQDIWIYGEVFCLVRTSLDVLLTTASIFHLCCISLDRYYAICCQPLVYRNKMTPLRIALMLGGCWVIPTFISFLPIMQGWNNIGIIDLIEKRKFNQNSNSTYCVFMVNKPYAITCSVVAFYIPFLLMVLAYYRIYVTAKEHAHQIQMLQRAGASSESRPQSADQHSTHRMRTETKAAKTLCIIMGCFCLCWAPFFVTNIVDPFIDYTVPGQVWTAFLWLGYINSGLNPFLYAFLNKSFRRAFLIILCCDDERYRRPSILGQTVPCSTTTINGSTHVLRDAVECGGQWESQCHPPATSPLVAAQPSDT
Method: as §1, §2

5-HT2C = target: T4, 5-HT2C (Homo sapiens, UniProt P28335); test: Radioligand binding assay, 5-HT2C subtype
T4 construct: expressed in transfected cells
T4 sequence (P28335 33-458): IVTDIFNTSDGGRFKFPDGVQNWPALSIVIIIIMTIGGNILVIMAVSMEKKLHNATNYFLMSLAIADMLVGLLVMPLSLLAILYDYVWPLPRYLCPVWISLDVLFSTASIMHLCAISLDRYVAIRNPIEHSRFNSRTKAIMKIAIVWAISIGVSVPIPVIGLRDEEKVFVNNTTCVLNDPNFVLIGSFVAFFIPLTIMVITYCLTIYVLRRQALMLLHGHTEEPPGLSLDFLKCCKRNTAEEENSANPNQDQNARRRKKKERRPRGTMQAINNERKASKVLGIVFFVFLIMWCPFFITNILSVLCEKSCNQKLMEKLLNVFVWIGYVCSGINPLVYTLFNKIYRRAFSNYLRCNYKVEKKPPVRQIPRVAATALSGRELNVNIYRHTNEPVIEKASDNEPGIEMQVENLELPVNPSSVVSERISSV
Method: as §1, §2

5-HT1B = target: T5, 5-HT1B (Homo sapiens, UniProt P28222); test: Radioligand binding assay, 5-HT1B subtype
T5 construct: expressed in transfected cells
T5 sequence (P28222 whole entry, species assumed): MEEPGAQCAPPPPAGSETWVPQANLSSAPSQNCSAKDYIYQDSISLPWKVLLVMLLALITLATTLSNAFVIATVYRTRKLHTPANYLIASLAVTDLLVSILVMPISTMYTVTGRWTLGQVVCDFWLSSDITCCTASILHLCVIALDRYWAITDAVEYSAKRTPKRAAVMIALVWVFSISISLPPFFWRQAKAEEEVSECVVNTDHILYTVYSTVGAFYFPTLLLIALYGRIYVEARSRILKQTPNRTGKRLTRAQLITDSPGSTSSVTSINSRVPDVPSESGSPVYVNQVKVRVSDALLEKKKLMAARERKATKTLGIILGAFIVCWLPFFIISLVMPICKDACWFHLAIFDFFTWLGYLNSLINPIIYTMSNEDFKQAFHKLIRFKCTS
Method: as §1, §2

alpha 1 adrenergic = test: Radioligand binding assay, alpha 1 adrenergic
Method: as §1, §2

5-HT1A = target: T6, 5-HT1A (Homo sapiens, UniProt P08908); test: Radioligand binding assay, 5-HT1A subtype
T6 construct: expressed in transfected cells
T6 sequence (P08908 1-422): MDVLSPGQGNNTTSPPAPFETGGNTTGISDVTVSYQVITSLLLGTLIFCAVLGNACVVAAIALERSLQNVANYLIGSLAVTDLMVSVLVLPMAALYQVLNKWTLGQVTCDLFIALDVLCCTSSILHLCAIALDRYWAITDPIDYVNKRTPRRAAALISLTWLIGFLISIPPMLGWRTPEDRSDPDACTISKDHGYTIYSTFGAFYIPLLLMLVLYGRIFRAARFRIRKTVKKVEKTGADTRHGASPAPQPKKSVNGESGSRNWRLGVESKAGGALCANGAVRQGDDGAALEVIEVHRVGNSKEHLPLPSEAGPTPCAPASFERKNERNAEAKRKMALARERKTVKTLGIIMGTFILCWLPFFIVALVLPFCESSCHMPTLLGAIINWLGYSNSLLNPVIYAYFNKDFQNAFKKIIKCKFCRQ
Method: as §1, §2

[3] = test system: male Harlan Sprague-Dawley rats; test: Animal model of dural plasma protein extravasation (PPE); type: in vivo, rat
Text: The dural plasma protein extravasation model is an established model for migraine. The ability of a test compound to reduce extravasation of plasma proteins into the dura under assay conditions is considered indicative of the compound's ability to reduce or prevent the dural inflammation thought to be symptomatic of migraine. (see Johnson, K. W., et al., Neuroreport, 8 (1997) 2237-2240.)
To assay compounds for their ability to reduce or prevent dural plasma protein extravasation, male Harlan Sprague-Dawley rats (250-350 g) are anesthetized with sodium pentobarbital (65 mg/kg, i.p.) and placed in a stereotaxic frame (David Kopf Instruments) with the incisor bar set at −2.5 mm. Following a midline sagittal scalp incision, 2 pairs of bilateral holes are drilled through the skull (3.2 mm posterially, 1.8 and 3.8 mm laterally, all coordinates referenced to bregma). […]
The amount of FITC-BSA for each sample is quantified with a fluorescence microscope (Zeiss) equipped with a grating monochromator, a spectrophotometer, and a computer driven stage. Fluorescence measurements are taken at 25 points in a 5×5 grid in 500 μm steps on each dural sample with an excitation wavelength of approximately 490 nm and emission intensity measured at approximately 535 nm. The mean and standard deviation of the 25 measurements are determined. […]

5-HT1D = target: T7, 5-HT1D (Homo sapiens, UniProt P28221); test: Radioligand binding assay, 5-HT1D subtype
T7 construct: expressed in transfected cells
T7 sequence (P28221 whole entry, species assumed): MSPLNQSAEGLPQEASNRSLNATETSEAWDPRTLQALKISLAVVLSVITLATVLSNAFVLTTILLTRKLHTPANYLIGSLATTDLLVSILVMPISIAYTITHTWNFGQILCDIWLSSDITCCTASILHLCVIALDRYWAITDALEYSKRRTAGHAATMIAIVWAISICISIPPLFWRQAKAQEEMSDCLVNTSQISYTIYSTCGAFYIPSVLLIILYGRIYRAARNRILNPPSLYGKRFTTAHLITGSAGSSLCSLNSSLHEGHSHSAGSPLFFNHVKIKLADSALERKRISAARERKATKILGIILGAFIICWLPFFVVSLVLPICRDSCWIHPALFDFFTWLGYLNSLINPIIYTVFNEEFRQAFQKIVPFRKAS
Method: as §1, §2

5-HT2A = target: T8, 5-HT2A (Homo sapiens, UniProt P28223); test: Radioligand binding assay, 5-HT2A subtype
T8 construct: expressed in transfected cells
T8 sequence (P28223 whole entry, species assumed): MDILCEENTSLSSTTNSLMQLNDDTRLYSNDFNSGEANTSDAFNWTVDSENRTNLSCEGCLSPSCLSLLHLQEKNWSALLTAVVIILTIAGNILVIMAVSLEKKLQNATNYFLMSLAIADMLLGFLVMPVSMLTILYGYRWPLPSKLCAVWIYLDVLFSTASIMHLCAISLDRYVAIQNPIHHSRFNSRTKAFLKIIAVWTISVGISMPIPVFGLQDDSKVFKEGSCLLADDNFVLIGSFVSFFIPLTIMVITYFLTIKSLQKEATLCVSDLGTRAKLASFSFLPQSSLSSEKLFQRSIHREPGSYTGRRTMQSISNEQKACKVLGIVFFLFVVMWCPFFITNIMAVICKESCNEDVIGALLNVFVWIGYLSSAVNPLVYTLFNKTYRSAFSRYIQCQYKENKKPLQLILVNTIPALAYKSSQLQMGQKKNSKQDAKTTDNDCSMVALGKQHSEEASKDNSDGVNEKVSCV
Method: as §1, §2

5-HT5 = target: T9, 5-HT5 (Homo sapiens, UniProt P47898); test: Radioligand binding assay, 5-HT5 subtype
T9 construct: expressed in transfected cells
T9 sequence (P47898 whole entry, species assumed): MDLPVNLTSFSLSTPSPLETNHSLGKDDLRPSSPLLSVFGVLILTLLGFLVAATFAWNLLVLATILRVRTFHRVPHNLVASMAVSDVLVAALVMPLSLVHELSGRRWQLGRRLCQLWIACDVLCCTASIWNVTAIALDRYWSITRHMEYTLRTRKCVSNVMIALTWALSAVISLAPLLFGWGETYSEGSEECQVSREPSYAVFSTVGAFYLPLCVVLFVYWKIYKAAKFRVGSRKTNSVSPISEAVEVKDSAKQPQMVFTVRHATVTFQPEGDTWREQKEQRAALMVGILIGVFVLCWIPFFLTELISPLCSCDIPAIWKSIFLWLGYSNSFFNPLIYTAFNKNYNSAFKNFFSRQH
Method: as §1, §2

alpha 2 adrenergic = test: Radioligand binding assay, alpha 2 adrenergic
Method: as §1, §2

5-HT6 = target: T10, 5-HT6 (Homo sapiens, UniProt P50406); test: Radioligand binding assay, 5-HT6 subtype
T10 construct: expressed in transfected cells
T10 sequence (P50406 whole entry, species assumed): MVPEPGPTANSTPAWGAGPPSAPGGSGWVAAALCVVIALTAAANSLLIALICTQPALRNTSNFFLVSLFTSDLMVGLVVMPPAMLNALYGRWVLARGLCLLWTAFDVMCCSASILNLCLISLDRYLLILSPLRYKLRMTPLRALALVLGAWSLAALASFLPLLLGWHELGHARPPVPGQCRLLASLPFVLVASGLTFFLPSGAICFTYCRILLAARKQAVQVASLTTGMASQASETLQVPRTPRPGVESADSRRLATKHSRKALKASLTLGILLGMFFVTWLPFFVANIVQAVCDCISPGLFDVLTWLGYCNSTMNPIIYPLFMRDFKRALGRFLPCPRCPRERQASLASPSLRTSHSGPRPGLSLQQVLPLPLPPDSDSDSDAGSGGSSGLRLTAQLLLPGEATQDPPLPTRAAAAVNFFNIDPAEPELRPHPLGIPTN
Method: as §1, §2

Structure (SMILES)	antagonist character (5-HT7 receptor [1])	Kb (5-HT7 receptor [1])	Ki (5-HT7 receptor [2])	Ki (5-HT2B)	Ki (5-HT4)	Ki (5-HT2C)	Ki (5-HT1B)	Ki (alpha 1 adrenergic)	Ki (5-HT1A)	ratio of extravasation, stimulated side over unstimulated side ([3]; at ID100 of 1 mg/Kg, saline controls about 2.0)	ID100 ([3]; rat dural plasma protein extravasation, route not given)	Ki (5-HT1D)	Ki (5-HT2A)	Ki (5-HT5)	Ki (alpha 2 adrenergic)	Ki (5-HT6)	inhibition (5-HT7 receptor [1])
COCc1ccc(-c2nccnc2N2CCN(CCN(C)S(=O)(=O)c3cnn(C)c3)CC2)cc1.Cl [Example 25, 1-Methyl-1H-pyrazole-4-sulfonic acid {2-[3′-(4-methoxymethyl-phenyl)-2,3,5,6-tetrahydro-[1,2′]bipyrazinyl-4-yl]-ethyl}-methyl-amide hydrochloride]	full antagonists	~8.5 nM	~19.4 nM and 19.4 nM	> 6810 nM	> 4120 nM	> 8360 nM	3240 nM	2330 nM	2070 nM	about 1.1	1 mg/kg	1270 nM	> 7470 nM	3320 nM	> 5290 nM	> 5830 nM	–
CN(CCN1CCN(c2nccnc2-c2ccc(F)cc2)CC1)S(=O)(=O)c1cn(C)cn1 [Example 17, 1-Methyl-1H-imidazole-4-sulfonic acid {2-[3′-(4-fluoro-phenyl)-2,3,5,6-tetrahydro-[1,2′]bipyrazinyl-4-yl]-ethyl}-methyl-amide hydrochloride]	–	–	~33.5 nM and 33.5 nM	> 6810 nM	> 6310 nM	> 8360 nM	> 3580 nM	> 1770 nM	1500 nM	–	–	> 2320 nM	> 7470 nM	> 6710 nM	> 2430 nM	> 5830 nM	–
CN(CCN1CCN(c2nccnc2-c2ccc(F)cc2)CC1)S(=O)(=O)c1ccc(F)cc1.Cl [Example 4, 4-Fluoro-N-{2-[3′-(4-fluoro-phenyl)-2,3,5,6-tetrahydro-[1,2′]bipyrazinyl-4-yl]-ethyl}-N-methyl-benzenesulfonamide hydrochloride]	full antagonists	~24 nM	–	–	–	–	–	–	–	–	–	–	–	–	–	–	about 128%
